Data taken from ChEMBL document CHEMBL1201862, “PubChem BioAssay data set” (2004).
Values belong to the compound of their own block, whether it stands above or below them. Active and inactive are the calls of the source.

Columns and labels:
[1] = biological target: T1, Calpain-2 catalytic subunit (Sus scrofa, UniProt P43367); assay: m-calpain protease blockers, concentration series – biochemical, fluorogenic peptide substrate, dose response (AID 1420); type: functional
T1 sequence (P43367 whole entry): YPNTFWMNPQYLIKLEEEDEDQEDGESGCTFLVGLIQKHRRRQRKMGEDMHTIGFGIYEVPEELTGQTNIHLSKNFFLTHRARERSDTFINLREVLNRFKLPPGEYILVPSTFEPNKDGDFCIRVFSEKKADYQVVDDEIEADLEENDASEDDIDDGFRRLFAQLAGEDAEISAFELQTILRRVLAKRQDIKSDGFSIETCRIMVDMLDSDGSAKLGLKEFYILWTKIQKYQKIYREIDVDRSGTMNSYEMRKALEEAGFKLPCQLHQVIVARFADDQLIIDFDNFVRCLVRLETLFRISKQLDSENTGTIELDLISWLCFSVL

[2] = biological target: T2, Low molecular weight phosphotyrosine protein phosphatase (Homo sapiens, UniProt P24666); type: functional; details: read-out: IC50_Mean
T2 sequence (P24666 whole entry): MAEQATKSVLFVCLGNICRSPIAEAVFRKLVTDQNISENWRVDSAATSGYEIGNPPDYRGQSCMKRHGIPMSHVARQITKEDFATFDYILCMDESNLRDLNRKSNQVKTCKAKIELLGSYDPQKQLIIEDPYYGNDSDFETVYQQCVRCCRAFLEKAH

[3] = biological target: Beta-galactosidase (Escherichia coli, UniProt Q8VNN2); assay: detection-enzyme interference by beta-gal modulators – biochemical, E. coli enzyme, set 3, artefact control for CCR6 antagonist project, dose response (AID 504712); type: functional
[4] = biological target: C-C chemokine receptor type 6 (Homo sapiens, UniProt P51684); assay: antagonism of CCR6 beta-arrestin recruitment – cell-based, luminescent beta-arrestin readout, dose response (AID 504728); type: functional
[5] = biological target: Eukaryotic translation initiation factor 4E (Mus musculus, UniProt P63073); assay: blockers of eIF4G binding by eIF4E – biochemical, TR-FRET, dose response (AID 855); type: functional;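 note: potency for disrupting eIF4E binding to eIF4GI seen as loss of FRET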
[6] = biological target: T2, Low molecular weight phosphotyrosine protein phosphatase; type: functional; details: read-out: IC50_Mean; remark: listed apart in the source
[7] = biological target: Induced myeloid leukemia cell differentiation protein Mcl-1 (Homo sapiens, UniProt Q07820); type: functional
[8] = biological target: Genome polyprotein (Hepatitis C virus, UniProt Q2Q167); assay: disruption of hepatitis C core self-association – biochemical, TR-FRET, dose response (AID 2159); design: species or system Hepacivirus hominis;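 note: blocks dimerization of HCV core protein measured by TR-FRET between tagged core106 pairs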
[9] = biological target: T3, Carboxy-terminal domain RNA polymerase II polypeptide A small phosphatase 1 (Homo sapiens, UniProt Q9GZU7); assay: CTDSP1 inhibitors, concentration-response, biochemical, absorbance readout, ultra-high-throughput screen actives (AID 540297); type: functional
T3 sequence (Q9GZU7 whole entry): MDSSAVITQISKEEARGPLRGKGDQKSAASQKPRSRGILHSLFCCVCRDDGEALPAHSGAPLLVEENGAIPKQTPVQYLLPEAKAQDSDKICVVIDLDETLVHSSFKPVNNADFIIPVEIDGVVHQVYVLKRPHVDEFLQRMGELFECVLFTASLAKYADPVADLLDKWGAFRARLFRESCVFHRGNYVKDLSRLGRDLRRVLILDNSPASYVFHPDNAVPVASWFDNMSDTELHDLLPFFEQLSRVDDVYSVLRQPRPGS

[10] = biological target: 72 kDa type IV collagenase (Homo sapiens, UniProt P08253); assay: Dose Response validation of uHTS RPN11 inhibitor hits using a MMP-2 Fluorescence assay.; type: functional
[11] = biological target: T4, Tyrosine-protein phosphatase non-receptor type 22 (Homo sapiens, UniProt Q9Y2R2); assay: inhibition of lymphoid tyrosine phosphatase LYP – biochemical, pCAP fluorogenic substrate, fluorescence, set 3, SAR follow-up (AID 449727); type: functional
[12] = biological target: T5, G-protein coupled receptor 35 (Homo sapiens, UniProt Q9HC97); assay: SAR Analysis for the identification of Selective Antagonists of ERK1/2 Activity in GPR35-Overexpressing U2OS Cells. [Related pubchem assays: 2079, 2058 ]; type: functional, cell-based
[13] = biological target: G-protein coupled receptor 55 (Homo sapiens, UniProt Q9Y2T6); assay: blockers of GPR55 signalling, imaged – imaging, image-based, counter-screen for GPR35 antagonist project, SAR follow-up (AID 2397); type: functional
[14] = biological target: Tyrosine-protein phosphatase non-receptor type 12 (Homo sapiens, UniProt Q05209); assay: SAR Selectivity Analysis of small molecule inhibitors of PEST using pCAP in a fluorescence assay. [Related pubchem assays (depositor defined):AID1779, AID1784, AID2135]; type: functional
[15] = biological target: T4, Tyrosine-protein phosphatase non-receptor type 22; assay: SAR LYP1 Fluorescent Assay using OMFP substrate for In Vitro dose response studies - Set 3. [Related pubchem assays (depositor defined):AID1779, AID1784, AID2140, AID2686]; type: functional
[16] = biological target: Prothrombin (Bos taurus, UniProt P00735); assay: thrombin protease inhibitors – biochemical, fluorescence polarization, uHTS hits, dose response (AID 602369); type: functional
[17] = biological target: 26S proteasome non-ATPase regulatory subunit 14 (Homo sapiens, UniProt O00487); assay: inhibition of proteasome subunit RPN11 – biochemical, fluorescence polarization, uHTS hits, confirmation (AID 602368); type: functional
[18] = biological target: T5, G-protein coupled receptor 35; assay: inhibition of zaprinast-stimulated GPR35 beta-arrestin translocation – imaging, U2OS, beta-arrestin-GFP, zaprinast agonist, primary screen (AID 2058); type: functional;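 note: antagonist potency meaning inhibition of agonist-induced arrestin redistribution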
[19] = Luminescence Cell Based Dose Confirmation HTS to Identify Activators of 5'UTR Stem-Loop Driven Alpha-Synuclein mRNA Translation in H4 Neuroglioblastoma Cells. [Related pubchem assays (depositor defined):AID1813, AID1829]; type: functional; details: Homo sapiens
[20] = biological target: Voltage-gated N-type calcium channel alpha-1B subunit/Amyloid beta A4 precursor protein-binding family A member 1 (Homo sapiens, UniProt Q00975+Q02410); assay: disruptors of Mint-PDZ/N-type channel peptide interaction – biochemical, HTRF, set 2, SAR follow-up (AID 434980); type: functional

T5 sequence (Q9HC97 whole entry): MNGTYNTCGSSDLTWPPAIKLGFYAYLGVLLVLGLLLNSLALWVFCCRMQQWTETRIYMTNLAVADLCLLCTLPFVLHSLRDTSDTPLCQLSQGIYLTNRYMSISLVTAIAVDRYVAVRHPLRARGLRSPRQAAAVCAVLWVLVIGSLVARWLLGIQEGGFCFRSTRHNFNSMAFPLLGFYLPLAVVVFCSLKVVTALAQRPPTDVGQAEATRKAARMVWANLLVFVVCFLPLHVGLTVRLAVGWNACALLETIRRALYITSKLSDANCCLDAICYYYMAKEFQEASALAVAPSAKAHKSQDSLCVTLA
T4 sequence (Q9Y2R2 whole entry): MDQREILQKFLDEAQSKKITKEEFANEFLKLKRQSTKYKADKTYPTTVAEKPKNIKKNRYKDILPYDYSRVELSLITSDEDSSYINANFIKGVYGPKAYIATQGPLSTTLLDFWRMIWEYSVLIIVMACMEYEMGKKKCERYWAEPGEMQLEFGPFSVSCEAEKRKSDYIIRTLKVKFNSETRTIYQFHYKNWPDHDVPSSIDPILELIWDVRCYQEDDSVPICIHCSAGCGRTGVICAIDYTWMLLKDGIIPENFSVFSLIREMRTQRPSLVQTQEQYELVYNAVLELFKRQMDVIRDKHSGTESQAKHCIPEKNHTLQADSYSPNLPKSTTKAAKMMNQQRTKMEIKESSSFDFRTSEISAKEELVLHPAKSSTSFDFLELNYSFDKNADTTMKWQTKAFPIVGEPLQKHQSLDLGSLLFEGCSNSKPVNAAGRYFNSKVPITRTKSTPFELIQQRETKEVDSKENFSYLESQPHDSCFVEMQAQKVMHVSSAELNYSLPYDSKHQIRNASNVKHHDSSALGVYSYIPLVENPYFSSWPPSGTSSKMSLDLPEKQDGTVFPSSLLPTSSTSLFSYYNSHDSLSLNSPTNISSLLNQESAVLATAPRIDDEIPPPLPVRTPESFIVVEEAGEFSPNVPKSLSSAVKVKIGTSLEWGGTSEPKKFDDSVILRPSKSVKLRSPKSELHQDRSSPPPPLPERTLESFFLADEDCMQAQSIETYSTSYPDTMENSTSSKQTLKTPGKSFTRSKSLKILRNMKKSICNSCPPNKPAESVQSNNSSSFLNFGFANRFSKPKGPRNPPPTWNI
Tyrosine-protein phosphatase non-receptor type 12, sequence (Q05209 whole entry): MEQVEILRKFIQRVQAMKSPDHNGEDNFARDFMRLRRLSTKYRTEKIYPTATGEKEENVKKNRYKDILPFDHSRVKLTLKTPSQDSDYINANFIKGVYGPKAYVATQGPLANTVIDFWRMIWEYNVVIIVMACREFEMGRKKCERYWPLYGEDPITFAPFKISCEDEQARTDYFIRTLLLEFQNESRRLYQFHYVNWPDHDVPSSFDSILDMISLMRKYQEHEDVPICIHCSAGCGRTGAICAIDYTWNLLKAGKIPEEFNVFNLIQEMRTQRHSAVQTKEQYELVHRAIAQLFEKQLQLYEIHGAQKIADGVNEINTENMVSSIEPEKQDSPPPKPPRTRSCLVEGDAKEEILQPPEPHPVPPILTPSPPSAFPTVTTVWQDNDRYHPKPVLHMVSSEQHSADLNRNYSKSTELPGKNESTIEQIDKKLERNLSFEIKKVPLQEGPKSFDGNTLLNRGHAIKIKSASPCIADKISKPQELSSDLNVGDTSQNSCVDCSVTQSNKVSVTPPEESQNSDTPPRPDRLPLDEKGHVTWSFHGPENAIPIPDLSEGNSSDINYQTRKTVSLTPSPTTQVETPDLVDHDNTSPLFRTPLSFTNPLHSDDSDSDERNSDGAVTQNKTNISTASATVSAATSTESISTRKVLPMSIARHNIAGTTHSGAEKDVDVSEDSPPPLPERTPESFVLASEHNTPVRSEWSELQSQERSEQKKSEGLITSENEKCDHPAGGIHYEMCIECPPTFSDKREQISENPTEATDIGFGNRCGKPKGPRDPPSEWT
Induced myeloid leukemia cell differentiation protein Mcl-1, sequence (Q07820 whole entry): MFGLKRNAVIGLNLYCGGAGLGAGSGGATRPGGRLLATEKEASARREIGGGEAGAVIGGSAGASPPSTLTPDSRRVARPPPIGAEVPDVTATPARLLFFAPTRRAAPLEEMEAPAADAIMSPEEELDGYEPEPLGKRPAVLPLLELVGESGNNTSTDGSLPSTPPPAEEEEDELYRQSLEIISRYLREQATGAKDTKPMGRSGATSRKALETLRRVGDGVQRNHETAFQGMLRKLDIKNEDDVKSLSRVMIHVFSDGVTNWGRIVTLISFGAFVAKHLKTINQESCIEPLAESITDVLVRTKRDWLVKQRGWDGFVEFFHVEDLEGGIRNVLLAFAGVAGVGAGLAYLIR
Beta-galactosidase, sequence (Q8VNN2 whole entry): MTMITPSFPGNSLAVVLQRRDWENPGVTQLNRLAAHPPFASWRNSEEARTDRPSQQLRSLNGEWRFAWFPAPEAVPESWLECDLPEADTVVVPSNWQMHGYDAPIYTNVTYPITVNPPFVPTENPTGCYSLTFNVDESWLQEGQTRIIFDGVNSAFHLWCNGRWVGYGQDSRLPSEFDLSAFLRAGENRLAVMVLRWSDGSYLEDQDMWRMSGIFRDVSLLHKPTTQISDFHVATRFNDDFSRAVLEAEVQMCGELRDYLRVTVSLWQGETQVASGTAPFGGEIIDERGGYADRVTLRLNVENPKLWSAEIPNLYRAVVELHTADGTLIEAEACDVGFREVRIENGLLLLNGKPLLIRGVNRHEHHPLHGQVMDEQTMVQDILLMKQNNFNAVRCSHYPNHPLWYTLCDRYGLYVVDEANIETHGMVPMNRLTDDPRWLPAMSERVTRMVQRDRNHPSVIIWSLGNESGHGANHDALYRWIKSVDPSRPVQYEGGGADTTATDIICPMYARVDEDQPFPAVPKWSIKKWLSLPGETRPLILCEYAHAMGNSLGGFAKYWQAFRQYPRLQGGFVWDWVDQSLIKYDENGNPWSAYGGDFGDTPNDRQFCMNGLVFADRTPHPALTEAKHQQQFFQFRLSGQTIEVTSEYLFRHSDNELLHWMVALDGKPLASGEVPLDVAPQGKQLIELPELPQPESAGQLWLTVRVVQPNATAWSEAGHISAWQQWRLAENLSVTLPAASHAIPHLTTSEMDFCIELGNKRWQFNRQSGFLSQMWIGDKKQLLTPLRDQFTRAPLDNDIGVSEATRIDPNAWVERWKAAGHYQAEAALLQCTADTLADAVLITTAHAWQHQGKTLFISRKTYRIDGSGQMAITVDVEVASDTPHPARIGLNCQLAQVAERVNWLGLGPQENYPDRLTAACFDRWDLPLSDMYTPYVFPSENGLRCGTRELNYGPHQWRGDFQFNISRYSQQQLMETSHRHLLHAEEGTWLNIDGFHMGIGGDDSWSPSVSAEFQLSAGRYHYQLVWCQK
26S proteasome non-ATPase regulatory subunit 14, sequence (O00487 whole entry): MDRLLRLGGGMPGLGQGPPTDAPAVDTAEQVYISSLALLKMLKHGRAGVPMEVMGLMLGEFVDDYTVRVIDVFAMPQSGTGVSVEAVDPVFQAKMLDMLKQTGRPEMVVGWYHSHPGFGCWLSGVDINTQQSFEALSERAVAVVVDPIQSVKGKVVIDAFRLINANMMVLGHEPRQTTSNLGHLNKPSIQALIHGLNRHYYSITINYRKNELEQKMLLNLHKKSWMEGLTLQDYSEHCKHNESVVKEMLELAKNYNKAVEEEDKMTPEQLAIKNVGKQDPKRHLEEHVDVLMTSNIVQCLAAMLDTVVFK
C-C chemokine receptor type 6, sequence (P51684 whole entry): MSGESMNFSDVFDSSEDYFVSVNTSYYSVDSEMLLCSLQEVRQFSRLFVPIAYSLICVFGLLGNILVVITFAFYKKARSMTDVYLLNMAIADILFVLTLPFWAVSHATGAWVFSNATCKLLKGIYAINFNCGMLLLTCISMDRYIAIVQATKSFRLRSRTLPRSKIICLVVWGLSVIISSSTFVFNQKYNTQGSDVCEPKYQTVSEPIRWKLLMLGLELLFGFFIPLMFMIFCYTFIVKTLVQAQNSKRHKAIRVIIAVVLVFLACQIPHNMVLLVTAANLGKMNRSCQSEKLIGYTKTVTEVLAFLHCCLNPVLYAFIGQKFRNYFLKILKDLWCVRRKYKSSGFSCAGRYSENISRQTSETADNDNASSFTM
G-protein coupled receptor 55, sequence (Q9Y2T6 whole entry): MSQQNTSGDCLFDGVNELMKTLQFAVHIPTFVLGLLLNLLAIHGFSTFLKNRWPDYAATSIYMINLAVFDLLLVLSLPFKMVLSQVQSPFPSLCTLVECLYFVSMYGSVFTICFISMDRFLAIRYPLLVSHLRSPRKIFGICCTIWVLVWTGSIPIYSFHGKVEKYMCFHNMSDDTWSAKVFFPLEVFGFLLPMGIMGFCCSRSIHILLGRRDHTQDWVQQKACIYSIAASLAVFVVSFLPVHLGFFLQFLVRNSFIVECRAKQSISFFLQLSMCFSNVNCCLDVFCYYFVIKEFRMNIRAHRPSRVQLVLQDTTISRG
Eukaryotic translation initiation factor 4E, sequence (P63073 whole entry): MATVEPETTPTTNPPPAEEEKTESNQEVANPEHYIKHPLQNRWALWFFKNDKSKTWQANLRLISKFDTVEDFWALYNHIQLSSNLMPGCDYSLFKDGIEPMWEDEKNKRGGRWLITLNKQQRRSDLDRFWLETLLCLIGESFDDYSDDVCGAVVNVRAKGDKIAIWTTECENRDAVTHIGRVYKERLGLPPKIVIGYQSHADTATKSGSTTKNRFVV
Genome polyprotein, sequence (Q2Q167 whole entry, the tested form may be a part): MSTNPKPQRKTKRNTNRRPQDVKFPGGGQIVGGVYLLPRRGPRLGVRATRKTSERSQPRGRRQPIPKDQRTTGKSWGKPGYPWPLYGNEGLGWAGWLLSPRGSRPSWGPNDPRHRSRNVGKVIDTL

IC50 [1]: 4.56 µM (not active)
IC50 [2]: 1.98 µM (active)
IC50 [3]: > 66.6 µM (inactive)
IC50 [4]: > 66.6 µM (inactive)
IC50 [5]: > 64 µM (inactive)
IC50 [6]: 2.89 µM (active)
IC50 [7]: 1.18 µM (active)
IC50 [8]: > 49.8 µM (not active)
IC50 [9]: 0.711 µM (active)
SMILES: O=C(N=Nc1c(O)[nH]c2ccc([N+](=O)[O-])cc12)c1cc(-c2ccccc2Cl)nc2ccccc12

IC50 [10]: > 100 µM (inactive)
IC50 [11]: 95.9 µM (active)
IC50 [12]: 1.2 µM (active)
IC50 [13]: > 32 µM (inactive)
IC50 [14]: 58.8 µM (active)
IC50 [15]: > 100 µM (inactive)
IC50 [16]: 23.9 µM (active)
IC50 [17]: 17.7 µM (active)
IC50 [18]: 0.564 µM (active)
SMILES: COc1ccc(/C=C2\SC(=S)N(CCCC(=O)Nc3cccc(C(=O)O)c3)C2=O)cc1OC

SMILES: FC(F)(F)c1ccc(Cl)c(Nc2nnc(-c3ccncc3)s2)c1
EC50 [19]: > 195 µM (inactive)

IC50 [20]: > 56.8 µM (inactive)
SMILES: O=C(NC1CCc2ccccc2C1)c1cc(-c2ccco2)nc2ccccc12 (stereo not given)
